Assay results as given in PubChem BioAssay AID179 (DTP/NCI, 2004).
The source made the active and inactive calls.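 Rule for the calls: active = compounds giving half or more protection of infected cells from virus-caused growth loss, again on retest; inactive = the rest.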 Where a SMILES comes first, the peptide text is derived from it. The star is where a group is joined. Fmoc = O=C(OCC1c2ccccc2-c2ccccc21)*; Boc = CC(C)(C)OC(=O)*

System: CEM cells HIV-1 protection, formazan growth assay
Assay: NCI AIDS Antiviral Assay
Settings: for IC50: measured here: growth of uninfected CEM cells
Summary of the method: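 Steps: treat uninfected and HIV-1-infected human CEM cells at five drug levels; quantify growth by soluble formazan; retest any compound reaching 50% protection; classify actives from the retest.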

Row | SMILES | EC50 | outcome | IC50
1 | COc1ccc2cc1Oc1ccc(cc1)C[C@H]1c3cc(c(OC)cc3CCN1C)Oc1c(OC)c(OC)cc3c1[C@H](C2)N(C)CC3 | > 21.9 µM | inactive | 12.3 µM
2 | O=C1c2cccc3cccc(c23)C(=O)N1c1ccc([N+](=O)[O-])cc1[N+](=O)[O-] | > 200 µM |  | 120 µM
3 | C/C=C(/CCC1NCCC2c3ccccc3NC12)[Si](C)(C)C (centres undefined) |  | inactive | 
4 | O=C(O)c1ccc(C(c2c(O)c3ccccc3oc2=O)c2c(O)c3ccccc3oc2=O)cc1 | > 200 µM |  | 191 µM
5 | CNC(=O)CNC(=O)CCC(=O)N(C)C | > 200 µM |  | > 200 µM
6 | Cc1ccc(NC(=S)NNC(=O)c2cc(-c3ccccc3)nc3ccccc23)cc1 | > 200 µM |  | 12.9 µM
7 | CC(C)(C)OC(=O)NCCCCC(NC(=O)C(Cc1c[nH]c2ccccc12)NC(=O)OCC1c2ccccc2-c2ccccc21)C(=O)O (centres undefined) (Fmoc-Trp-Lys(Boc)-OH; configuration not given here) | > 200 µM |  | 102 µM
8 | CN(C)CCNC(=O)c1ccccc1Nc1c(Cl)cccc1Cl | > 200 µM |  | 39.8 µM
9 | COc1ccc(NC(=O)CC(=O)Nc2ccc(OC)cc2)cc1 | 170 µM |  | > 200 µM
10 | O=CC1=C(C(=O)OC(c2ccccc2)c2ccccc2)N2C(=O)[C@@H](NC(=O)Cc3cccs3)[C@H]2SC1 | > 200 µM |  | 123 µM
11 | CCOC(=O)C1=C(C)N(NC(N)=O)C2(N)N(NC(N)=O)C(C)=C(C(=O)OCC)C12C(=O)OCC (centres undefined) | > 513 µM |  | > 513 µM
12 | CC1C2CC3(c4ccccc4)CC(/C2=N\O)/C(=N/O)C1/C3=C\O (centres undefined) | > 200 µM |  | > 200 µM
13 | C=C(C)COc1cc(NC(=S)OC(C)C)ccc1Cl | 0.813 µM |  | 4.79 µM
14 | COCn1cnc2c(=O)n(-c3ccc(C)cc3)c(=S)n(-c3ccc(C)cc3)c21 | > 200 µM |  | 138 µM
15 | CCOC(=O)COc1c(C)cc(SSc2cc(C)c(OCC(=O)OCC)c(C)c2)cc1C | > 200 µM |  | 12 µM
16 | CCOC(=O)C(NC(=O)Nc1ccccc1)(Nc1cccc(Cl)c1)C(F)(F)F (centres undefined) | > 200 µM |  | 195 µM
17 | N/C(=N\N=C\c1ccc2c(c1)OCO2)NO | > 200 µM |  | 105 µM
18 | C=CC(=O)Nc1ccccc1CC(c1c[nH]c2ccccc12)c1c[nH]c2ccccc12 | > 36.3 µM |  | 25.7 µM
19 | CC1(C)C(=O)C(C)(C)C1=NNC(N)=S | > 417 µM |  | 263 µM
20 | O=[N+]([O-])c1ccc(N2N=C(c3c(O)ccc4ccccc34)CC2c2ccc(Cl)cc2)c([N+](=O)[O-])c1 (centres undefined) | > 200 µM |  | 16.6 µM

Row | SMILES | EC50 | outcome | IC50
21 | COc1ccc(COCC[C@H](C)OC2OC(CO)C(O)C(O)C2O)cc1 (some centres undefined) | > 200 µM |  | > 200 µM
22 | C/C=C/CC(S(=O)(=O)c1ccccc1)S(=O)(=O)c1ccccc1 | > 100 µM |  | > 100 µM
23 | COc1ccccc1NC(=S)N/N=C(/C)c1ccccn1 | > 0.2 µM |  | 0.0339 µM
24 | NC1=NNC2(C(N)=N1)c1ccccc1-c1ccccc12 | > 200 µM |  | 51.3 µM
25 | Oc1ccc(Cc2nc3ccccc3[nH]2)cc1 | > 200 µM |  | > 200 µM
26 | CCCCCCCC(=O)OCC1OC(n2cc(F)c(=O)[nH]c2=O)C(NC(=O)OCc2ccccc2)C(OC(=O)CCCCCCC)C1O (centres undefined) | > 10.7 µM |  | > 10.7 µM
27 | CC(CCNC(=O)c1ccccc1)(CCNC(=O)c1ccccc1)[N+](=O)[O-] | > 200 µM |  | > 200 µM
28 | CCC(C#N)(c1ccccc1)N(CCc1ccccc1)C(=O)c1ccccc1 (centres undefined) | > 200 µM |  | 191 µM
29 | CN(C)CCNCc1ccc(-c2cccc(-c3ccc(CNCCN(C)C)cc3)n2)cc1 | > 204 µM |  | 2.45 µM
30 | CC(=S)NC=C(C(N)=O)C(N)=O | > 200 µM |  | > 200 µM
31 | OC(C#CCN1CCCC1)(c1ccccc1)c1ccccc1Cl (centres undefined) | > 200 µM |  | 70.8 µM
32 | CC[C@]1(O)C[C@H]2CN(CCc3c([nH]c4ccccc34)[C@@](C(=O)OC)(c3cc4c(cc3OC)N(C)[C@H]3[C@@](O)(C(=O)OC)[C@H](OC(C)=O)[C@]5(CC)C=CCN6CC[C@]43[C@@H]65)C2)C1 | > 0.0302 µM |  | 0.000355 µM
33 | OCCNC(=S)SSC(=S)NCCO |  | inactive | 
34 | COC(=O)c1c2c(cc3c1CC1(C3)Cc3cc4c(c(C(=O)OC)c3C1)CCCC4)CCCC2 | > 200 µM |  | > 200 µM
35 | COc1cc2c(OC)c(-c3c(C)cc4c(C(C)C)c(OC)c(OC)cc4c3OC)c(C)cc2c(C(C)C)c1OC |  | inactive | 
36 | COc1cc(OC)c(Oc2cccc(OC)c2OC)c(OC)c1 | > 16.2 µM |  | > 16.2 µM
37 | COC(=O)c1ncn(Cc2ccccc2)c1N | > 200 µM |  | > 100 µM
38 | COC1(OC)c2no[n+]([O-])c2C(OC)(OC)c2c1no[n+]2[O-] | > 200 µM |  | 3.89 µM
39 | O=C1C=C2C(=CCOC2O)O1 (centres undefined) | > 16.2 µM |  | 0.191 µM
40 | CN1C(=O)C(O)CC1c1ccccc1C(F)(F)F (centres undefined) | > 200 µM |  | > 200 µM

Row | SMILES | EC50 | outcome | IC50
41 | CP1(=S)CC[C@H]2C3=C(CC[C@@H]21)CC(=O)CC3 (some centres undefined) |  | inactive | 
42 | Cc1cc[n+](C2=C([O-])C3=C(C(=O)C2=O)C2c4ccccc4C3c3ccccc32)c(C)c1 | > 33.9 µM |  | 31.6 µM
43 | Cn1c(=O)oc2cc(C(=S)N3CCCCC3)ccc21 | > 200 µM |  | > 200 µM
44 | COC(=O)[C@]1(Cc2ccc3ccccc3c2)CCCCCCN1C(=O)c1ccccc1 |  | inactive | 
45 | C[C@@]1(O)C2C3CC4C5C3C1[C@](O)(C42)[C@H]5Br (some centres undefined) |  | inactive | 
46 | CC1c2cc(c3c(c2O)CN([C@@H](C)C2CCCCC2)CO3)C(C)c2cc(c3c(c2O)CN([C@@H](C)C2CCCCC2)CO3)C(C)c2cc(c3c(c2O)CN([C@@H](C)C2CCCCC2)CO3)C(C)c2cc1c1c(c2O)CN([C@@H](C)C2CCCCC2)CO1 (some centres undefined) | > 100 µM |  | 1.74 µM
47 | N#CC12C(=O)N3C(=NC(c4ccccc4)NC3c3ccccc3)C1(C#N)C(c1ccccc1)NC1=C2CCC1 (centres undefined) | > 200 µM |  | > 200 µM
48 | N#C/C(=C\c1ccccc1)c1ccc(F)cc1 | > 200 µM |  | 53.7 µM
49 | O=c1[nH]oc2ccccc12 | > 200 µM |  | > 200 µM
50 | C=CC(=O)NCCSSCCNC(=O)C=C | > 200 µM |  | 115 µM
51 | COc1cc2c(cc1OC)C1C=NC(C(=O)O)(C2)c2ccccc21 (centres undefined) |  | inactive | 
52 | CC1C2(C)OC(=N)C(C#N)(C(c3ccco3)O2)C1(C#N)C#N (centres undefined) | > 200 µM |  | 14.5 µM
53 | COC1=C(C)C(=O)C2=C(C1=O)C1C3CC4=C(C(=O)C(OC)=C(C)C4=O)C(CNC(=O)C(C)=O)N3C(C#N)C(C2)N1C (centres undefined) | > 1.2 µM |  | 0.0245 µM
54 | Nc1ccc(/C=C/c2ccc(N=Nc3ccc(/C=C/c4ccc(N=Nc5ccc(/C=C/c6ccc(N=Nc7ccc(/C=C/c8ccc(N)cc8S(=O)(=O)O)c(S(=O)(=O)O)c7)cc6S(=O)(=O)O)c(S(=O)(=O)O)c5)cc4S(=O)(=O)O)c(S(=O)(=O)O)c3)cc2S(=O)(=O)O)c(S(=O)(=O)O)c1 | 1.78 µM |  | 186 µM
55 | N=C(N)SCc1ccc2c(c1)S(=O)(=O)c1ccccc1O2 | > 200 µM |  | 13.2 µM
56 | COC(=O)C1(C(=O)OC)Cc2ccc(OC)cc2C2=C1C(=O)c1ccccc1C2=O | > 20 µM |  | 0.275 µM
57 | CCOC(=O)c1c(O)cn2c1[nH]c1cccc3cccc2c31 | > 100 µM |  | 25.7 µM
58 | N.N.N.N.[Co+3].[N-]=[N+]=[N-].[N-]=[N+]=[N-].[N-]=[N+]=[N-] |  | inactive | 
